From patent US8734869B2, “Synergistic pest-control compositions” (TyraTech, Inc., priority 2007, dated 2014)

Columns and labels:
male German Cockroach = experiment: Time to kill: five microliters applied to the sternum, time to death recorded (stopped at one hour); type: in vivo; details: five microliters on sternum
Method: Five microliters of the oil or oil blend listed in the table below were applied to the sternum of a male German Cockroach, and the time to death was recorded (time keeping was stopped at one hour). Sample size N=60 for Blend 24 and N=40 for each of the oil components. Components were diluted with acetone. Five microliters of the oil or oil blend listed in the table below were applied to the sternum of a male German Cockroach, and the time to death was recorded (time keeping was stopped at one hour). Sample size N=60 for Blend 41 and each of the oil components. Components were diluted with acetone. Five microliters of the oil or oil blend listed in the table below were applied to the sternum of a male German Cockroach, and the time to death was recorded (time keeping was stopped at one hour). Sample size N=40 for Blend 41 and each of the oil components. Components were diluted with acetone.

American cockroaches [1] = experiment: Residual activity of stabilized compositions, separate jar per time period; type: in vivo, American cockroach; details: tested about 48 hours after application; separate jar per time point
Method: In studies where treatment jars are reused at various time intervals, as described in Example 19, the materials in the jars are lost after each exposure due to contact with and transfer to the insect body, rather than via loss due to volatility of the material. As such, additional studies are conducted wherein a separate jar is prepared for each time period.
A solution of 5% thyme crystal (TC) is prepared in acetone and about 2 ml of the solution is applied to the bottom of five separate glass jars, one for each time point at which mortality is assessed. About 2 ml of six compositions (R1-R6), set forth above in Table 19-A, are each applied to the bottom of five separate jars. Thyme Crystals (5%, by weight) are combined with the six compositions (R1-R6) to produce six formulations. About 2 ml of each formulation is applied to five separate jars.
[…] Mortality is recorded about 24 hours after exposure. […] Mortality is recorded about 24 hours after each exposure.

American cockroaches [2] = experiment: Residual activity of stabilized compositions, treated jars reused, mortality 24 hours after exposure; type: in vivo, American cockroach; details: tested about 48 hours after application
Method: A solution of 5% thyme crystals (TC) is prepared in acetone and about 2 ml of the solution is applied to the bottom of a glass jar. About 2 ml of six compositions (R1-R6), set forth in Table 19-A, are each applied to the bottom of a separate jar. Thyme Crystals (5%, by weight) are combined with the six compositions (R1-R6) to produce six formulations. About 2 ml of each formulation is applied to a separate jar.
[…] Mortality is recorded about 24 hours after exposure. All jars are kept under room temperature and reused at subsequent time points to evaluate residual activity. […] Mortality is recorded about 24 hours after each exposure.

[3] = test system: olfactory receptor activation in Drosophila S2 cells; experiment: Ca2+ release triggered by olfactory receptor activation in Drosophila S2 cells; type: cell-based
From the text: In embodiments of the present invention, a Drosophila Schneider 2 (S2) cell line is stably transfected with a G protein-coupled receptor that is amplified from Drosophila melanogaster head cDNA phage library. The cell line can be used to screen potential active ingredients, as described below.
The potential for insect control activity can be identified by measuring the affinity of the test compositions for the receptor in the cell lines expressing a TyrR, Or83b, and/or Or43a. The potential for insect control activity can also be identified by measuring the change in intracellular cAMP and/or Ca2+ in the cell lines expressing TyrR, Or83b, and/or Or43a following treatment with the test compositions. The gene sequences of the TyrR, the Or 83b receptor and the Or 43a receptor have substantial similarity between various insect species. As such, the Drosophila Schneider cell lines expressing these receptors can be used to screen for compositions having insect control activity in various insect species.
A blend can is prepared and combined with a synthetic pyrethroid such as delatmetrhin. For example, Blend 41 was combined with deltamethrin (DM) and the efficacy of Blend 41 and DM individually were compared to the efficacy of Blend 41 and DM combined. […]

American cockroaches [4] = experiment: Treated jar test, knockdown and mortality time: Blend 41, deltamethrin, combination; type: in vivo, American cockroach; details: average of 3 replicates, 5 roaches each
Method: To test efficacy of the composition, a small amount of each test chemical is introduced to a separate jar. About 3 to 5 American cockroaches are introduced to each jar at different time intervals. Mortality and/or immobilization (knockdown, KD) data is recorded and compared. Such data is recorded as seconds (s) following introduction of the insect to the treated jar. The resulting data is contained in the following table.
The data is the average of 3 replicates, 5 roaches in each replicate.

German Cockroach = experiment: Bioactivity of Blend 13, deltamethrin and combination; type: in vivo
Drosophila S2 cells = experiment: cAMP response in cells treated with Blend 41, imidacloprid and combinations; type: cell-based
From the text: FIG. 23 is a bar graph showing percent knockdown in response to treatment of Aedes aegypti with various compositions of including Blend 41 alone, Imidacloprid alone, and combinations of Blend 41 and Imidacloprid. FIG. 24 is a bar graph showing percent knockdown in response to treatment of Aedes aegypti with various compositions of including Blend 41 alone, Imidacloprid alone, and combinations of Blend 41 and Imidacloprid. FIG. 25 is a bar graph showing cAMP signal produced in response to treatment of Drosophila S2 cells treated with various compositions of including Blend 41 alone, Imidacloprid alone, and combinations of Blend 41 and Imidacloprid.

C=C(C)[C@H]1CC=C(C)CC1 [D-Limonene] was tested, and the “Percent of Tested Insects > 1 hr Time to Death” value (from here on “Percent”) (male German Cockroach; component at 83%, diluted with acetone) was 25% and the “Percent” value (male German Cockroach; component of Blend 31 diluted with acetone, concentration not given) was 22.5%.

For Cc1ccc(C(C)C)c(O)c1 [thyme crystal], the residual activity (American cockroaches [1]) was “does not have residual activity” and the residual activity (American cockroaches [2]) was “does not have residual activity”.

CN/C(=N\[N+](=O)[O-])NCc1cnc(Cl)s1 [clothianidin] was tested, and the “Ca2+ release, single agent alone” value [3] was “increase in Ca^2+ release”.

In the case of CCCCCCCCCCCCCC(=O)OC(C)C [Isopropyl myristate, propan-2-yl tetradecanoate], the “Percent” value (male German Cockroach; component at 40%, diluted with acetone) is reported as 100%.

CC1(C)[C@H](C(=O)O[C@H](C#N)c2cccc(Oc3ccccc3)c2)[C@@H]1C=C(Br)Br [deltamethrin] was tested, and the “100% Kill” value (American cockroaches [4]; time to 100% kill in treated jar) was 12 min, the KD (American cockroaches [4]; time to knockdown in treated jar) was 140 s and the “Bioactivity 100% Kill” value (German Cockroach) was 15 min. For the same molecule, the “Bioactivity KD” value (German Cockroach) was 120 s.

O=[N+]([O-])NC1=NCCN1Cc1ccc(Cl)nc1 [imidacloprid] was tested, and the “cAMP” value (Drosophila S2 cells; 100 PPM) was 9.1 nM, the “cAMP” value (Drosophila S2 cells; 333 PPM) was 9.4 nM and the “cAMP” value (Drosophila S2 cells; 500 PPM) was 8.8 nM.
